Reference: the supplement of paper PMC8967900

Key:
Assay in all cases: selective drug sensitivity score (sDSS, relative to normal bone marrow) (sDSS (score)); higher = more potent and effective on the cell line relative to normal bone marrow cells
Settings in all cases: 72 h
[1] = tested on: TMD5
[2] = tested on: CCRF-CEM
[3] = tested on: RCH-ACV
[4] = tested on: P30-OHKUBO
[5] = tested on: SEM cells
[6] = tested on: NALM-6
[7] = tested on: ALL-SIL
[8] = tested on: COG-LL-332h
[9] = tested on: 380
[10] = tested on: HPB-ALL
[11] = tested on: LC4-1
[12] = tested on: MHH-CALL-2
[13] = tested on: MHH-CALL-4
[14] = tested on: 697
[15] = tested on: COG-LL-319h
[16] = tested on: ALL-PO
[17] = tested on: MOLT-14
[18] = tested on: COG-LL-402h
[19] = tested on: MN-60
[20] = tested on: JURKAT
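Note: ALL cell lines in 384-well plates, five doses spanning 10,000-fold, each plate scaled between vehicle and 100 µmol/L benzalkonium chloride controls, sDSS an adapted area-under-curve metric.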

Row | SMILES | selective drug sensitivity score [1] | selective drug sensitivity score [2] | selective drug sensitivity score [3] | selective drug sensitivity score [4] | selective drug sensitivity score [5] | selective drug sensitivity score [6] | selective drug sensitivity score [7] | selective drug sensitivity score [8] | selective drug sensitivity score [9] | selective drug sensitivity score [10] | selective drug sensitivity score [11] | selective drug sensitivity score [12] | selective drug sensitivity score [13] | selective drug sensitivity score [14] | selective drug sensitivity score [15] | selective drug sensitivity score [16] | selective drug sensitivity score [17] | selective drug sensitivity score [18] | selective drug sensitivity score [19] | selective drug sensitivity score [20]
1 | O=C(Nc1ccc2[nH]nc(-c3ccncc3)c2c1)[C@@H]1CCN(CC(=O)N2CCN(c3ccc(-c4ncccn4)cc3)CC2)C1 (top concentration 10000 nM) | -0.34 | -0.54 | -0.44 | -3.74 | -2.64 | 4.76 | 0.16 | -0.54 | 1.66 | -0.44 | 4.26 | 1.26 | 3.96 | 0.66 | 2.16 | 3.76 | 8.56 | 1.76 | -3.64 | -2.04
2 | O=C1CCc2c(Oc3ccc4c(c3)[C@@H]3[C@H](O4)[C@H]3c3nc4cc(C(F)(F)F)ccc4[nH]3)ccnc2N1 [Lifirafenib (BGB-283)] (top concentration 10000 nM) | 15.9 | 4.18 | 10.3 | 5.28 | 15.7 | 5.58 | 30 | 8.18 | 0.98 | 0.98 | 3.28 | 4.88 | 7.58 | 6.68 | -0.52 | 6.98 | 4.58 | 2.38 | 1.48 | 5.28
3 | O=C(/C=C/c1cccc(S(=O)(=O)Nc2ccccc2)c1)NO [Belinostat] (top concentration 10000 nM) | 6.3 | 8.7 | 14.3 | 8 | 7.6 | 7.4 | 8.9 | 7.9 | 16.2 | 8.4 | 9.7 | 11 | 7.5 | 10.1 | 11.8 | 11.4 | 12.2 | 12.6 | 1.8 | 7.6
4 | Cc1[nH]nc(C(F)(F)F)c1Cc1sc2c(c1C(=O)N1C[C@](C)(O)CO1)c(=O)n(C)c(=O)n2C(C)C [AZD3965] (top concentration 1000 nM) | 2.6 | 0.3 | 0 | 1.8 | 0 | 11.1 | 0 | 0 | 4.2 | 0.1 | 1.5 | 1.4 | 0 | 3.6 | 0 | 3.8 | 0 | 0 | 0.9 | 0
5 | Nc1ccccc1NC(=O)c1ccc(CNC(=O)OCc2cccnc2)cc1 [Entinostat] (top concentration 10000 nM) | 5.38 | 3.78 | 9.98 | 5.68 | 12.9 | 1.08 | 12.1 | -0.62 | 13.1 | 4.28 | 4.48 | 8.98 | 8.88 | 8.28 | 12.7 | 4.08 | 7.98 | 4.98 | 1.68 | 2.68
6 | CCN(CC)CCNC(=O)c1c(C)[nH]c(/C=C2\C(=O)Nc3ccc(F)cc32)c1C [Sunitinib] (top concentration 1000 nM) | 3.26 | -1.44 | 1.46 | 0.76 | 15.3 | -1.44 | 0.76 | -1.44 | -1.44 | -1.44 | -0.84 | 1.86 | 2.06 | 1.16 | -1.34 | 14.2 | 0.76 | -1.44 | -1.44 | -1.44
7 | Nc1ccccc1NC(=O)c1ccc(CNc2nccc(-c3cccnc3)n2)cc1 [Mocetinostat] (top concentration 10000 nM) | 1.44 | 5.54 | 9.54 | 7.54 | 9.04 | 2.94 | 9.14 | 7.04 | 15.5 | 8.64 | 9.14 | 7.74 | 8.04 | 8.84 | 14.7 | 7.24 | 9.14 | 8.84 | 1.34 | 6.74
8 | O=C(/C=C\n1cnc(-c2cc(C(F)(F)F)cc(C(F)(F)F)c2)n1)NNc1cnccn1 [Selinexor] (top concentration 10000 nM) | 0.38 | 9.38 | 13.7 | 9.28 | 5.38 | 13 | 9.88 | 9.68 | 18.1 | 3.78 | 7.78 | 7.48 | 5.18 | 12.4 | 9.68 | 13.5 | 16.7 | 11.7 | 3.58 | 12.8
9 | O=C(CCCCCCNC(=O)c1cnc(N(c2ccccc2)c2ccccc2)nc1)NO [Rocilinostat] (top concentration 10000 nM) | 0.04 | 4.64 | 9.24 | 5.04 | 4.74 | 4.84 | 9.14 | 3.34 | 8.54 | 5.54 | 8.24 | 11.2 | 3.74 | 5.84 | 8.24 | 5.84 | 8.44 | 8.14 | 1.04 | 2.74
